Assay results: patent US11203588B2, “Anti-cancer and splice modulating compounds and methods” (The Regents of the University of California, priority 2016, dated 2021)
Converted amounts (≈) assume the structure as drawn.

What was measured:
primary CLL-B cells = assay: In vitro cytotoxicity, specific induced apoptosis (% SIA), flow cytometry; type: cell-based, human (CLL patients); settings: for IC50: 48 h
Text: Peripheral blood mononuclear cells (PBMC) from CLL patients were obtained from the CLL Research Consortium (CRC) tissue bank. This protocol was approved by the institutional review board (IRB) of the University of California, San Diego. Blood samples were taken from two CLL patients after written informed consent for blood sample collection and confirmation of diagnosis for CLL diseases, The PBMCs were separated from heparinized venous blood by density gradient centrifugation using Ficoll-Hypaque media (GE Healthcare). The samples with >95% positively for leukemic B cells was confirmed by staining for CD5 and CD19 followed by assessment using flow cytometry. CLL-B cells were maintained in RPMI 1640 medium supplemented with 10% FBS, 2 mM L-glutamine, and 100 U/mL of penicillin and 100 μg/mL of streptomycin at 37° C. in an atmosphere containing 5% CO2.
The CLL-B cells (3×10^5 cells) were treated for 48 h with 10, 100, 300, and 1000 nM of 1a, 1b, 2 or 19 at 37° C. in an atmosphere containing 5% CO2. Fludarabine (F-ara-A) dosed at 10 μM was used as a control. The cells were centrifuged and labeled with CD19/CD5/DiOC6 and subjected to flow cytometry. The data was analyzed using FlowJo software. […] The dose-response curves were plotted to determine IC50 values using the GraphPad Prism version 6.0c software.

[1] = test system: intron retention in DNAJB1, ARF4, PRPF4, RIOK3, SF3A1, and U2AF2 in primary CLL-B cells; assay: RT-PCR / qRT-PCR analysis of intron retention (IR); type: cell-based; settings: six genes, 4 h treatment, RNU6A and GAPDH as controls
Experimental: CLL-B (5×10^6 cells/well) were treated with a given dose of compound from a DMSO stock solution over 4 h. RNA isolation and cDNA preparation, PCR reaction was performed in 20 μL of reaction volume as described previously.^S3 PCR conditions give by incubation at 94° C. for 3 min; 35 cycles of 94° C. for 30 s, 55-60° C. (annealing temperature: 55° C. for GAPDH, 53.6° C. for RNU6A, 58° C. for DNAJB1, 54° C. for SF3A1, 55° C. for PRPF4, 55° C. for ARF4, and 55° C. for U2AF2) for 30 s, and 72° C. for 1 min; followed by 72° C. for 5 min. PCR products were separated on a 2% agarose gel and stained with ethidium bromide.
cDNA was prepared using identical methods as used for RT-PCR analysis. The amount of unspliced RNA for different genes was determined using Power SYBR Green PCR master mix (Applied Biosystems) by qRT-PCR using specific primers designed for detection of the intron of each gene (Table 2). The qPCR was performed using 5 pM of each primer on 20 ng of the obtained cDNA. PCR conditions were as follows: one cycle of 50° C. for 2 min (UDG Incubation), one cycle of 95° C. for 10 min (UDG Inactivation), followed by 95° C. for 15 sec; 60° C. for 30 s for 40 cycles and adding a step for dissociation using a 7900 HT Fast Real Time PCR System (Applied Biosystems). Unspliced RNA levels were calculated using 2-ΔΔCT method.^S4 GAPDH was used as a control for normalization.

[2] = test system: alternate splicing of MCL1 and BCL-X in CLL-B cells; assay: RT-PCR analysis of alternate splicing (AS); type: cell-based, human (CLL patients); settings: for alternate splicing (AS) events: H2A as unspliced loading control
[3] = Solubility by capillary NMR with solvent 13C-satellites (QSCS); type: physicochemical
Text: (§1) Early studies indicate that 2 was more soluble and stable in aqueous buffers than FD-895 (1a).

[4] = Stability in aqueous buffer by NMR monitoring; type: physicochemical; settings: after 744 h (1 month), D2O/DMSO-d6 (10:1) at 37° C.
Text: as §1

[5] = primary CLL-B cells from two CLL patients

Row | Compound | IC50 (primary CLL-B cells; Homo sapiens, primary CLL-B cells, both sets of cells) [nM] | splice modulation via intron retention (IR) [1] | alternate splicing (AS) events [2] | IC50 (primary CLL-B cells; [5]) [nM] | solubility (soluble up to) ([3]; D2O/DMSO-d6 (10:1) at 23° C.) [mM] | MCL1 long (anti-apoptotic) and short (pro-apoptotic) isoform expression [2] | decomposition (stability) [4] | IC50 (primary CLL-B cells; Homo sapiens, primary CLL-B cells from two CLL patients) [nM] | loss of activity when compared to FD-895 (1a) (primary CLL-B cells; primary CLL-B cells, IC50 based) [fold] | solubility ([3]; 23 °C, aqueous with cosolvent or surfactant or cyclodextrin) [mM]
1 | CC[C@H](OC)[C@@H](C)/C=C/[C@H](O)[C@@H](C)/C=C/C=C(\C)[C@H]1O[C@H](OC)[C@H](OC)[C@@H](OC)[C@@H]1OC [Alkene 19, (2E,4E,6S,7S,8E,10S,11S)-11-methoxy-6,10-dimethyl-2-((2R,3R,4S,5R,6S)-3,4,5,6-tetramethoxytetrahydro-2H-pyran-2-yl)trideca-2,4,8-trien-7-ol] | > 50000 | inactive for all six genes | did not induce AS |  |  |  |  |  |  | 
2 | CCC(OC)C(C)C1OC1C(O)C(C)/C=C/C=C(\C)C1OC(=O)CC(O)CCC(C)(O)C(OC(C)=O)/C=C/C1C (stereo not drawn) [Compound 1a, FD-895, reference compound] |  |  |  | 54.1 ± 7.5 | 15 ± 5 (≈ 8.5 mg/mL) | decrease in the long (anti-apoptotic) form and increased the expression of short (pro-apoptotic) form of MCL1 |  |  |  | 
3 | CC[C@H](OC)[C@@H](C)[C@H]1O[C@@H]1[C@H](O)[C@@H](C)/C=C/C=C(\C)[C@H]1O[C@H](OC)[C@H](OC)[C@@H](OC)[C@@H]1OC [Compound 2, (1R,2S,3E,5E)-1-((2R,3R)-3-((2R,3S)-3-methoxypentan-2-yl)oxiran-2-yl)-2-methyl-6-((2R,3R,4S,5R,6S)-3,4,5,6-tetramethoxytetrahydro-2H-pyran-2-yl)hepta-3,5-dien-1-ol] |  | complementary splice modulation in all six genes | induced alternate splicing (AS) events |  |  | decrease in the long (anti-apoptotic) form and increased the expression of short (pro-apoptotic) form of MCL1 | no signs of decomposition | 153 ± 11.8 | ~3 | 95 ± 5 (≈ 44.9 mg/mL)
4 | pladienolide B [Compound 1b, reference compound] |  |  |  | 84.4 ± 1.2 |  | decrease in the long (anti-apoptotic) form and increased the expression of short (pro-apoptotic) form of MCL1 |  |  |  | 
